Literature values as cited in patent publication US12453351B2, “Herbicide compatibility improvement” (Monsanto Technology LLC, priority 2005, dated 2025).

Conditions: at 25° C.

For O=C(O)CNCP(=O)(O)O [Glyphosate], the Solubility in water is given as 1.16 % by weight.
